{"source": "patent US20240269091A1", "about": "“IDEBENONE IN THE TREATMENT OF DRUG RESISTANT EPILEPSY” (Katholieke Universiteit Leuven, priority 2021, published 2024)", "key": {"[1]": {"tested_on": "EKP-induced epileptiform activity in zebrafish", "assay": "Zebrafish EKP-induced seizure model, LFP recordings", "assay_type": "in vivo", "experimental": "FIG. 3. Representative LFP recordings of zebrafish in the absence (VHC) or presence of EKP, treated with 8.5-4.3 μM idebenone or untreated (VHC), in the presence or absence of a specific PHGDH inhibitor CBR-5884 [Mullarky et al. (2016) Proc Natl Acad Sci USA 113, 1778-1783].\nFIG. 4: Normalized PSD per larvae for the different conditions. Number of epileptic events within a 10-min recording (mean±SEM.). Number of recordings analysed were: VHC (n=9), EKP (n=15), 8.5 μM idebenone (Ide) (n=10), 4.3 μM idebenone (n=10), 4.3 μM idebenone+inhibitor (n=9). PHGDH-inhibitor CBR-5884 was used. Statistical differences as compared to the EKP-only treated larvae were assessed by the following statistical analysis: one-way ANOVA with Dunnett's multiple comparison test. A statistical difference is indicated by: **p<0.01, ***p<0.001 and ****p<0.0001.ns=not significant.\nCommon to all epilepsies, seizures occur due to an abnormal, excessive and synchronous activity of large neuronal populations. As such, seizures can be observed on electrophysiological recordings such as invasive or non-invasive local field potential (LFP) measurements, being a counterpart of electroencephalogram (EEG) performed in humans. Indeed, these techniques serve as a gold standard for epilepsy diagnosis. […]"}, "human recombinant PHGDH": {"target": "T1, human recombinant PHGDH (Homo sapiens, UniProt O43175)", "T1 sequence (O43175 1-533)": "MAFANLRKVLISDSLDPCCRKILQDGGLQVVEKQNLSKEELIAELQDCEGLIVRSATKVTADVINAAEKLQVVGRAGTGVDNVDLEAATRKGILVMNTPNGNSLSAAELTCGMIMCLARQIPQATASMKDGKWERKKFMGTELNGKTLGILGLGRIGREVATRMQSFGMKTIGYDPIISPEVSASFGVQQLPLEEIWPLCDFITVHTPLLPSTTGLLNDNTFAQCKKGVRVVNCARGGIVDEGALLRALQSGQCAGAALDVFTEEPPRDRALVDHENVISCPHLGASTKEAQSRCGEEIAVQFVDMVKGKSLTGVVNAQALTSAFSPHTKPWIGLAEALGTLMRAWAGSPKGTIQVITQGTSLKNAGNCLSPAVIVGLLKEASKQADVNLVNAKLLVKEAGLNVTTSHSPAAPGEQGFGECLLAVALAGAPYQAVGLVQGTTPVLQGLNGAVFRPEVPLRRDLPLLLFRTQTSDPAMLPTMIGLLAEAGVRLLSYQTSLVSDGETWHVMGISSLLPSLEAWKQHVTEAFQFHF", "assay": "PHGDH enzyme activity, colorimetric PHGDH activity kit (absorbance at 450 nm, NADH generated)", "description": "As a readout, absorbance at 450 nm, indicative for the amount of NADH generated, was measured over time."}, "[2]": {"tested_on": "EKP-induced epileptiform activity in zebrafish", "details": "1 μM; Zhang et al. (2017); cited from earlier work"}, "[3]": {"tested_on": "EKP-induced seizures in zebrafish larvae", "assay": "Zebrafish EKP-induced seizure model, locomotor activity tracking", "assay_type": "in vivo", "details": "8.5 μM, 2 h pre-incubation, 300 μM EKP, 7 dpf larvae, 30 min recording; ****p<0.0001", "experimental": "FIG. 2. Activity profile of 8.5 μM idebenone after 300 μM EKP exposure. Locomotor activity was quantified using ZebraLab™ software (Viewpoint, Lyon, France) and expressed in mean “actinteg” units per 5-min+/−SEM during a 30 min recording interval as indicated above. Statistical analysis: one-way ANOVA with Dunnett's multiple comparison test. A statistical difference is indicated by: ****p<0.0001. For each condition n=10 larvae were used and the experiment was performed three times (n total=30 per condition).\nThe EKP-induced epilepsy zebrafish model is a suitable model to investigate drug resistant epilepsy. Ethyl ketopentenoate (EKP) is a lipid-permeable GAD-inhibitor that results in […] and drug resistant seizures in zebrafish [Zhang et al. (2017) Sci Rep. 7, 7195]. […]\nLarvae (7dpf) in 100 μl VHC were arrayed individually in a 96-well plate (tissue culture plate, at bottom, Falcon, USA) and kept in the light at 28° C. […] The plates were placed in an automated video tracking device (ZebraBox™ apparatus; Viewpoint, Lyon, France) and the locomotor behaviour of the larvae was monitored for […] in the dark at 28° C. Locomotor activity was quantified using ZebraLab™ software (Viewpoint, Lyon, France) and expressed in “actinteg” units per 5-min interval. […] The actinteg value is defined as the sum of all image pixel changes detected during the time window."}, "[4]": {"tested_on": "Arginase 1 expression (microglia/macrophage M2 marker)", "assay": "Temporal lobe epilepsy model (SSSE), Arginase-1 expression by real-time quantitative PCR of brain tissue", "assay_type": "in vivo, C57bl/6 mice", "details": "100 mg/kg twice daily i.p. for one week, vs vehicle control; p=0.017; two-way ANOVA (FIG. 5)", "experimental": "The present example investigates whether Idebenone has the potential to modulate neuroinflammation from an M1 to M2 phenotype. […] (control animals received vehicle injections for one week). Idebenone was suspended in 5% dimethyl sulfoxide and 20% Kolliphor RH40 in 0.01M PBS. Expression of the major marker for M2 polarization, Arginase-1, was assessed via real-time quantitative PCR upon brain tissue processing. Two-way ANOVA analysis was performed to evaluate the effect of two factors including the treatment and the SSSE [self-sustained Electrical Status Epilepticus], and any interaction of the two factors."}, "[5]": {"tested_on": "pilocarpine-induced seizures", "details": "rats, preventive treatment 3 days prior to pilocarpine injection; Ahmed (2014); cited from earlier work"}, "[6]": {"details": "mouse, in vivo; cited from earlier work"}}, "note": "“Also recorded” adds a separate entry of the source.", "data": [{"molecule": "CBR-5884", "values": [{"measurement": "blocking of the anti-seizure activity of idebenone", "setting": "[1]; co-administration with idebenone (4.3 μM)", "value": "could be blocked by co-administration"}, {"measurement": "blocking of idebenone-induced increased PHGDH activity", "setting": "human recombinant PHGDH; co-administration with idebenone", "value": "can be blocked by co-administration"}]}, {"molecule": "N#Cc1ccccc1-c1cc(-c2ccccn2)cn(-c2ccccc2)c1=O", "note": "[Perampanel]", "values": [{"measurement": "anti-seizure activity in the EKP model", "setting": "[2]", "value": "anti-seizure activity"}]}, {"molecule": "COC1=C(OC)C(=O)C(CCCCCCCCCCO)=C(C)C1=O", "note": "[Idebenone, 6-(10-hydroxydecyl)-2,3-dimethoxy-5-methyl-1,4-benzoquinone]", "values": [{"measurement": "EKP-induced seizures assessed as locomotor movement (actinteg units per 5-min)", "setting": "[3]", "value": "significantly reduced EKP-induced seizures"}, {"measurement": "EKP-induced epileptiform activity, LFP recordings", "setting": "[1]; 8.5-4.3 μM, 10-min recording", "value": "significantly reduced EKP-induced epileptiform activity"}, {"measurement": "expression of M2 marker Arginase 1", "setting": "[4]", "value": "increases the expression; also recorded: significant increase"}, {"measurement": "neuroprotection in pilocarpine-induced seizure model", "setting": "[5]", "value": "provides neuroprotection"}, {"measurement": "LD50", "setting": "[6]", "value": "exceeds 10,000 mg/kg"}, {"measurement": "effect on the oxido-reduction reaction toward NADH generation (compound itself)", "setting": "human recombinant PHGDH", "value": "does not affect the oxido-reduction reaction toward NADH generation"}, {"measurement": "PHGDH enzyme activity", "setting": "human recombinant PHGDH; 25 µM idebenone, over time, DMSO 0.5% (FIG. 1)", "value": "induces increased enzyme activity of PHGDH"}]}]}
